Legend:
Assay type in all cases: cell-based, E. coli
N99/pUC21 = assay: MIC of amino acids and analogues on M9 agar, strain N99/pUC21; conditions: Escherichia coli; N99/pUC21 (vector control; same data with N99/pUK21); M9 agar (2%), about 10^4 viable cells, doubling increments
Description: (§1) Therefore, the effect of the pRhtB and pRhtC plasmids on susceptibility of the strain N99 which is a streptomycin-resistant (Str^R) mutant of the known strain W3350 (VKPM B-1557) to some amino acids and amino acid analogues was tested. Overnight broth cultures (10^9 cfu/ml) of the strains N99/pUC21, N99pUK21, N99/pRhtB and N99/pRhtC were diluted 1:100 in M9 minimal medium and grown for 5 h in the same medium. Then the log phase cultures thus obtained were diluted and about 10^4 viable cells were applied to well-dried test plates with M9 agar (2%) containing doubling increments of amino acids or analogues. Thus the minimum inhibitory concentrations (MIC) of these compounds were examined.

N99/pRhtB = assay: MIC of amino acids and analogues on M9 agar, strain N99/pRhtB; conditions: Escherichia coli
Description: as §1

N99/pRhtC = assay: MIC of amino acids and analogues on M9 agar, strain N99/pRhtC; conditions: Escherichia coli; N99/pRhtC (multicopy rhtC); M9 agar (2%), about 10^4 viable cells, doubling increments
Description: as §1

Compound | MIC (N99/pUC21) [mg/L] | MIC (N99/pRhtB) [mg/L] | MIC (N99/pRhtC) [mg/L]
CN(C)CC(N)C(=O)O (racemic) [4-aza-DL-leucine] | 50 | 100 | 50
C[C@@H](O)[C@H](N)C(=O)O [L-threonine] | 30000 | 40000 | 80000
N[C@@H](Cc1c[nH]cn1)C(=O)O [L-histidine] | 5000 | 5000 | 40000
CC(C)[C@H](N)C(=O)O [L-valine] | 0.5 | 0.5 | 2
N[C@@H](CCO)C(=O)O [L-homoserine] | 1000 | 20000 | 1000
CO[C@H](C)[C@H](N)C(=O)O [O-methyl-L-threonine] | 20 | 20 | 20
CCC(O)C(N)C(=O)O (stereo not drawn) [AHVA, α-amino-β-hydroxyvaleric-acid] | 100 | 2000 | 15000
NCCSC[C@H](N)C(=O)O [AEC, S-(2-aminoethyl)-L-cysteine] | 5 | 20 | 5
